Laboratory results from ChEMBL document CHEMBL6096719, “Kidney Targeting Smart Antibiotic Discovery: Multimechanism Pleuromutilins for Pyelonephritis Therapy” (J Med Chem, 2025).
Values after ≈ are worked out from the molar mass of the structure shown.

Legend:
[1] = target: T1, Solute carrier family 22 member 2 (Homo sapiens, UniProt O15244); assay: Inhibition of human OCT2 transfected in HEK293 cells assessed as decrease in intracellular ASP accumulation at 100 uM incubated for 10 mins followed by incubation with ASP for 5 mins by fluorescence based analysis; assay type: cell-based; details: hek293, 0.25 h, time 15 min
T1 sequence (O15244 whole entry): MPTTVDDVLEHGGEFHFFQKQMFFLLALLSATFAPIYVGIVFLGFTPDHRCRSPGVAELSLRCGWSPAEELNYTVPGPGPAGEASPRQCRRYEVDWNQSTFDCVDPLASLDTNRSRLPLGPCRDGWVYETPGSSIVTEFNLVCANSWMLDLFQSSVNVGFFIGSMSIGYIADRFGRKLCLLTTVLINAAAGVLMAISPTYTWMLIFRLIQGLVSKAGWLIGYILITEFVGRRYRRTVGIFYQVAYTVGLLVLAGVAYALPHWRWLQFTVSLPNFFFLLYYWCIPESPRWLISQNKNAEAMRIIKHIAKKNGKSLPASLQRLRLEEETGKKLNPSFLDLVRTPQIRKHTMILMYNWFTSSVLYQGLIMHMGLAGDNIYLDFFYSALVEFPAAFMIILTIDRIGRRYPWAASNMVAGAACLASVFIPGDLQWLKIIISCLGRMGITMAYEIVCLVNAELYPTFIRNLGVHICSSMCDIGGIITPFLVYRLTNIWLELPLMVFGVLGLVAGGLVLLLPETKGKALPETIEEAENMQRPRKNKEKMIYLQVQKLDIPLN

[2] = target: Solute carrier family 22 member 1 (Homo sapiens, UniProt O15245); assay: Inhibition of human OCT1 transfected in HEK293 cells assessed as decrease in intracellular ASP accumulation at 200 uM incubated for 10 mins followed by incubation with ASP for 5 mins by fluorescence based analysis; assay type: cell-based; details: hek293, 0.25 h, time 15 min
Staphylococcus aureus [3] = assay: Antibacterial activity against methicillin-resistant Staphylococcus aureus ATCC 33591 assessed as inhibition of bacterial growth incubated for 24 hrs by broth microdilution method; assay type: functional
Staphylococcus aureus [4] = assay: Antibacterial activity against Staphylococcus aureus ATCC 29213 assessed as inhibition of bacterial growth incubated for 24 hrs by broth microdilution method; assay type: functional
Acinetobacter baumannii [5] = assay: Antibacterial activity against Acinetobacter baumannii ATCC 19606 assessed as inhibition of bacterial growth incubated for 24 hrs by broth microdilution method; assay type: functional
Klebsiella pneumoniae = assay: Antibacterial activity against multidrug-resistant Klebsiella pneumoniae 893 assessed as inhibition of bacterial growth incubated for 24 hrs by broth microdilution method; assay type: functional
[6] = Aqueous solubility of the compound incubated for 12 hrs by UV-Vis spectrophotometry; assay type: physicochemical; details: buffer
Staphylococcus aureus [7] = assay: Antibacterial activity against methicillin-resistant Staphylococcus aureus 171 assessed as inhibition of bacterial growth incubated for 24 hrs by broth microdilution method; assay type: functional
Staphylococcus aureus [8] = assay: Antibacterial activity against methicillin-resistant Staphylococcus aureus 206 assessed as inhibition of bacterial growth incubated for 24 hrs by broth microdilution method; assay type: functional
[9] = Cytotoxicity against human HEK293 cells assessed as reduction in cell viability incubated for 24 hrs by CCK8 assay; assay type: toxicity, cell-based
Staphylococcus aureus [10] = assay: Antibacterial activity against methicillin-resistant Staphylococcus aureus 596 assessed as inhibition of bacterial growth incubated for 24 hrs by broth microdilution method; assay type: functional
Escherichia coli [11] = assay: Antibacterial activity against Escherichia coli CMCC 44103 assessed as inhibition of bacterial growth incubated for 24 hrs by broth microdilution method; assay type: functional
[12] = Cytotoxicity against human HepG2 cells assessed as reduction in cell viability incubated for 24 hrs by CCK8 assay; assay type: toxicity, cell-based
Pseudomonas aeruginosa = assay: Antibacterial activity against multidrug-resistant Pseudomonas aeruginosa 126 assessed as inhibition of bacterial growth incubated for 24 hrs by broth microdilution method; assay type: functional
[13] = Cytotoxicity against human A549 cells assessed as reduction in cell viability incubated for 24 hrs by CCK8 assay; assay type: toxicity, cell-based
Staphylococcus aureus [14] = assay: Antibacterial activity against methicillin-resistant Staphylococcus aureus 575 assessed as inhibition of bacterial growth incubated for 24 hrs by broth microdilution method; assay type: functional
Staphylococcus aureus [15] = assay: Antibacterial activity against methicillin-resistant Staphylococcus aureus ATCC 43300 assessed as inhibition of bacterial growth incubated for 24 hrs by broth microdilution method; assay type: functional
[16] = tested on: Staphylococcus epidermidis; assay: Antibacterial activity against methicillin-resistant Staphylococcus epidermidis ATCC 51625 assessed as inhibition of bacterial growth incubated for 24 hrs by broth microdilution method; assay type: functional
Enterococcus = assay: Antibacterial activity against vancomycin-resistant Enterococcus 80 assessed as inhibition of bacterial growth incubated for 24 hrs by broth microdilution method; assay type: functional
Escherichia coli [17] = assay: Antibacterial activity against Escherichia coli ATCC 25922 assessed as inhibition of bacterial growth incubated for 24 hrs by broth microdilution method; assay type: functional
Staphylococcus aureus [18] = assay: Antibacterial activity against methicillin-resistant Staphylococcus aureus 222 assessed as inhibition of bacterial growth incubated for 24 hrs by broth microdilution method; assay type: functional
Salmonella enterica = assay: Antibacterial activity against Salmonella enterica ATCC 14028 assessed as inhibition of bacterial growth incubated for 24 hrs by broth microdilution method; assay type: functional
Acinetobacter baumannii [19] = assay: Antibacterial activity against carbapenem-resistant Acinetobacter baumannii 882 assessed as inhibition of bacterial growth incubated for 24 hrs by broth microdilution method; assay type: functional
Staphylococcus aureus [20] = assay: (§1) Antibacterial activity against methicillin-resistant Staphylococcus aureus ATCC33591 infected in systemic intraperitoneal infection Kunming mouse model assessed as decrease in inflammation, neutrophil infiltration, alveolar structure destruction, leukocyte infiltration, interstitial thickening in lungs at 5 mg/kg, ip treated at 1 hr post-infection and measured after 7 days by Hematoxylin-Eosin staining based analysis; assay type: functional, organism-based; details: time 7.0 day
Staphylococcus aureus [21] = assay: as §1, with “inflammation and” for “inflammation,”, “infiltration” for “infiltration, alveolar structure destruction, leukocyte infiltration, interstitial thickening”, “kidney” for “lungs”; assay type: functional, organism-based; details: time 7.0 day
[22] = Toxicity against methicillin-resistant Staphylococcus aureus ATCC33591 infected systemic intraperitoneal infection Kunming mouse model assessed as animal's mortality at 5 mg/kg, ip treated at 1 hr post-infection and measured after 7 days; assay type: organism-based; details: in vivo, 168 h, time 7 day
Staphylococcus aureus [23] = assay: as §1, with “infiltration and disordered spleen” for “infiltration, alveolar”, “structure” for “structure destruction, leukocyte infiltration, interstitial thickening in lungs”; assay type: functional, organism-based; details: time 7.0 day
Staphylococcus aureus [24] = assay: as §1, with “inflammation and” for “inflammation,”, “infiltration” for “infiltration, alveolar structure destruction, leukocyte infiltration, interstitial thickening”, “liver” for “lungs”; assay type: functional, organism-based; details: time 7.0 day

Chain of Solute carrier family 22 member 1 (O15245 whole entry): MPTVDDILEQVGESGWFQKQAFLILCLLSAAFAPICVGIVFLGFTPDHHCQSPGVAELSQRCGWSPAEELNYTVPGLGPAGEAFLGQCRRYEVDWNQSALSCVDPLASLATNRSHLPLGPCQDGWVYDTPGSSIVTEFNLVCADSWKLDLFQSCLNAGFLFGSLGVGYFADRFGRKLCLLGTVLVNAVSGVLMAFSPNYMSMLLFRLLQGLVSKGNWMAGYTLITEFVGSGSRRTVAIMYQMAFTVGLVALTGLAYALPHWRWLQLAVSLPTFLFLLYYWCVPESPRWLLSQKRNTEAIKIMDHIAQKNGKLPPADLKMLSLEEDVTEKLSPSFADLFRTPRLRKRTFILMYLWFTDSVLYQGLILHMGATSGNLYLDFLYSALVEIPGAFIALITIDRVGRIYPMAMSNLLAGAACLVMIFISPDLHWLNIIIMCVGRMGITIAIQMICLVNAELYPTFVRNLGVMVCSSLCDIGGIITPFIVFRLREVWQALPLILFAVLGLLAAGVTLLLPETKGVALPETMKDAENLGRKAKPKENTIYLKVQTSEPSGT

Compound	MIC (Staphylococcus aureus [3]) [µg/mL]	MIC (Staphylococcus aureus [4]) [µg/mL]	MIC (Acinetobacter baumannii [5]) [µg/mL]	MIC (Klebsiella pneumoniae) [µg/mL]	solubility at 12 h [6] [µg/mL]	MIC (Staphylococcus aureus [7]) [µg/mL]	MIC (Staphylococcus aureus [8]) [µg/mL]	CC50 at 24 h [9] [µM]	MIC (Staphylococcus aureus [10]) [µg/mL]	MIC (Escherichia coli [11]) [µg/mL]	CC50 at 24 h [12] [µM]	MIC (Pseudomonas aeruginosa) [µg/mL]	CC50 at 24 h [13] [µM]	MIC (Staphylococcus aureus [14]) [µg/mL]	MIC (Staphylococcus aureus [15]) [µg/mL]	MIC [16] [µg/mL]	MIC (Enterococcus) [µg/mL]	MIC (Escherichia coli [17]) [µg/mL]	MIC (Staphylococcus aureus [18]) [µg/mL]	MIC (Acinetobacter baumannii [19]) [µg/mL]	further results
CN(C)CCC=C1c2ccccc2CCc2ccccc21 [AMITRIPTYLINE]																					inhibition (INH) [1]: Active; inhibition (INH) [2]: Active
C=C[C@]1(C)C[C@@H](OC(=O)CSc2nc3cc[n+](Cc4ccc(C#N)cc4)cc3[nH]2)[C@]2(C)[C@H](C)CC[C@]3(CCC(=O)[C@H]32)[C@@H](C)[C@@H]1O.[Br-]	< 2	< 2	< 2	16	481	16	4	> 100	8	< 2	96.3	32	> 100	32	< 2	< 2	2	< 2	16	64	MIC (Salmonella enterica): < 2 µg/mL
C=C[C@]1(C)C[C@@H](OC(=O)CSC(C)(C)CNC(=O)[C@H](N)C(C)C)[C@]2(C)[C@H](C)CC[C@]3(CCC(=O)[C@H]32)[C@@H](C)[C@@H]1O [VALNEMULIN]				32 (≈ 56.7 µM)	218 (≈ 386 µM)	> 128	64 (≈ 113 µM)	65.4	> 128		77.3	64 (≈ 113 µM)	53.7	128 (≈ 227 µM)			64 (≈ 113 µM)		64 (≈ 113 µM)	64 (≈ 113 µM)	Activity (Staphylococcus aureus [20]): Active; Slight Without Complete Recovery Observed; Activity (Staphylococcus aureus [21]): Active; Slight Without Complete Recovery Observed; Activity [22]: Toxic; Activity (Staphylococcus aureus [23]): Active; Slight Without Complete Recovery Observed; Activity (Staphylococcus aureus [24]): Active; Slight Without Complete Recovery Observed
C=C[C@]1(C)C[C@@H](OC(=O)CSc2nc3cc[n+](Cc4ccc(C#N)cc4)cc3s2)[C@]2(C)[C@H](C)CC[C@]3(CCC(=O)[C@H]32)[C@@H](C)[C@@H]1O.[Br-]	< 2	< 2	< 2	16	451	16	64	18.2	8	< 2	78.5	32	> 100	32	< 2	< 2	16	< 2	16	64	MIC (Salmonella enterica): < 2 µg/mL
